Data published in ChEMBL document CHEMBL3259715, “Shuttle-cargo fusion molecules of transport peptides and the hD2/3 receptor antagonist fallypride: a feasible approach to preserve ligand-receptor binding?” (J Med Chem, 2014).
Peptide text beside a SMILES is read from it. * marks the point of attachment. X1 = C=CCN1CCC[C@H]1CNC(=O)c1cc(CCCSC2CC(=O)N(CCCCCC(=O)*)C2=O)cc(OC)c1OC

Biological target: D(2) dopamine receptor (Homo sapiens, UniProt P14416)
Assay: Displacement of [3H]spiperone from human D2 receptor transfected in HEK cells
Format: cell-based, HEK293

Chain of D(2) dopamine receptor (P14416 whole entry): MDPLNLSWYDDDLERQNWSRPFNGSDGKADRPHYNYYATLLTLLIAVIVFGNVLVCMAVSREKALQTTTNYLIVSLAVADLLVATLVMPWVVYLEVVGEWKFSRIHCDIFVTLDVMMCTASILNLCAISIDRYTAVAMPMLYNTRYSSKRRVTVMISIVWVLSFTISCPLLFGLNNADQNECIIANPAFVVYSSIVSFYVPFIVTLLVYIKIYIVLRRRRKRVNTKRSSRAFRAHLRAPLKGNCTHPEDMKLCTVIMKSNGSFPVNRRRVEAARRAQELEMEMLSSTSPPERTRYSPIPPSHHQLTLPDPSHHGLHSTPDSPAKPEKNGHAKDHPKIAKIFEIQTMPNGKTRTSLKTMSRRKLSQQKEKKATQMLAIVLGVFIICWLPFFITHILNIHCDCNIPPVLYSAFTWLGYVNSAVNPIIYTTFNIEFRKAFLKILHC

Ki [µM] | Molecule
0.0215 | C=CCN1CCC[C@H]1CNC(=O)c1cc(CCCSC2CC(=O)N(CCCCCC(=O)NCC(=O)N[C@@H](CCCNC(=N)N)C(=O)N[C@@H](CCCCN)C(=O)N[C@@H](CCCCN)C(=O)N[C@@H](CCCNC(=N)N)C(=O)N[C@@H](CCCNC(=N)N)C(=O)N[C@@H](CCC(N)=O)C(=O)N[C@@H](CCCNC(=N)N)C(=O)N[C@@H](CCCNC(=N)N)C(=O)N[C@@H](CCCNC(=N)N)C(=O)N3CCC[C@H]3C(=O)N3CCC[C@H]3C(=O)N[C@@H](CCC(N)=O)C(=O)O)C2=O)cc(OC)c1OC (some centres undefined)
0.00969 | C=CCN1CCC[C@H]1CNC(=O)c1cc(CCCSC2CC(=O)N(CCCCCC(=O)N[C@@H](CCCNC(=N)N)C(=O)N[C@@H](CCCCN)C(=O)N[C@@H](CCCCN)C(=O)N[C@@H](CCCNC(=N)N)C(=O)N[C@@H](CCCNC(=N)N)C(=O)N[C@@H](CCC(N)=O)C(=O)N[C@@H](CCCNC(=N)N)C(=O)N[C@@H](CCCNC(=N)N)C(=O)N[C@@H](CCCNC(=N)N)C(=O)O)C2=O)cc(OC)c1OC (some centres undefined)
0.0103 | C=CCN1CCC[C@H]1CNC(=O)c1cc(CCCSC2CC(=O)N(CCCCCC(=O)N[C@@H](Cc3cnc[nH]3)C(=O)N[C@@H](C)C(=O)N[C@H](C(=O)N[C@@H](Cc3ccc(O)cc3)C(=O)N3CCC[C@H]3C(=O)N[C@@H](CCCNC(=N)N)C(=O)N[C@@H](Cc3cnc[nH]3)C(=O)O)[C@@H](C)CC)C2=O)cc(OC)c1OC (some centres undefined)
0.00814 | C=CCN1CCC[C@H]1CNC(=O)c1cc(CCCSC2CC(=O)N(CCCCCC(=O)N[C@@H](CCCNC(=N)N)C(=O)N[C@@H](CCC(N)=O)C(=O)N[C@H](C(=O)N[C@@H](CCCCN)C(=O)N[C@H](C(=O)N[C@@H](Cc3c[nH]c4ccccc34)C(=O)N[C@@H](Cc3ccccc3)C(=O)N[C@@H](CCC(N)=O)C(=O)N[C@@H](CC(N)=O)C(=O)N[C@@H](CCCNC(=N)N)C(=O)N[C@@H](CCCNC(=N)N)C(=O)N[C@@H](CCSC)C(=O)N[C@@H](CCCCN)C(=O)N[C@@H](Cc3c[nH]c4ccccc34)C(=O)N[C@@H](CCCCN)C(=O)N[C@@H](CCCCN)C(=O)O)[C@@H](C)CC)[C@@H](C)CC)C2=O)cc(OC)c1OC (some centres undefined)
0.0284 | C=CCN1CCC[C@H]1CNC(=O)c1cc(CCCSC2CC(=O)N(CCCCCC(=O)NCCCC(=O)N[C@@H](Cc3cnc[nH]3)C(=O)N[C@@H](C)C(=O)N[C@H](C(=O)N[C@@H](Cc3ccc(O)cc3)C(=O)N3CCC[C@H]3C(=O)N[C@@H](CCCNC(=N)N)C(=O)N[C@@H](Cc3cnc[nH]3)C(=O)O)[C@@H](C)CC)C2=O)cc(OC)c1OC (some centres undefined)
0.0303 | C=CCN1CCC[C@H]1CNC(=O)c1cc(CCCSC2CC(=O)N(CCCCCC(=O)NCCOCCOCC(=O)N[C@@H](Cc3cnc[nH]3)C(=O)N[C@@H](C)C(=O)N[C@H](C(=O)N[C@@H](Cc3ccc(O)cc3)C(=O)N3CCC[C@H]3C(=O)N[C@@H](CCCNC(=N)N)C(=O)N[C@@H](Cc3cnc[nH]3)C(=O)O)[C@@H](C)CC)C2=O)cc(OC)c1OC (some centres undefined)
0.0274 | C=CCN1CCC[C@H]1CNC(=O)c1cc(CCCSC2CC(=O)N(CCCCCC(=O)NCCOCCOCCOCCOCCOCCOCCC(=O)N[C@@H](Cc3cnc[nH]3)C(=O)N[C@@H](C)C(=O)N[C@H](C(=O)N[C@@H](Cc3ccc(O)cc3)C(=O)N3CCC[C@H]3C(=O)N[C@@H](CCCNC(=N)N)C(=O)N[C@@H](Cc3cnc[nH]3)C(=O)O)[C@@H](C)CC)C2=O)cc(OC)c1OC (some centres undefined)
0.0539 | C=CCN1CCC[C@H]1CNC(=O)c1cc(CCCSC2CC(=O)N(CCCCCC(=O)NCCOCCOCCOCCOCCOCCOCCOCCOCCC(=O)N[C@@H](Cc3cnc[nH]3)C(=O)N[C@@H](C)C(=O)N[C@H](C(=O)N[C@@H](Cc3ccc(O)cc3)C(=O)N3CCC[C@H]3C(=O)N[C@@H](CCCNC(=N)N)C(=O)N[C@@H](Cc3cnc[nH]3)C(=O)O)[C@@H](C)CC)C2=O)cc(OC)c1OC (some centres undefined)
0.0253 | C=CCN1CCC[C@H]1CNC(=O)c1cc(CCCSC2CC(=O)N(CCCCCC(=O)NCCOCCOCCOCCOCCOCCOCCOCCOCCOCCOCCOCCOCCC(=O)N[C@@H](Cc3cnc[nH]3)C(=O)N[C@@H](C)C(=O)N[C@H](C(=O)N[C@@H](Cc3ccc(O)cc3)C(=O)N3CCC[C@H]3C(=O)N[C@@H](CCCNC(=N)N)C(=O)N[C@@H](Cc3cnc[nH]3)C(=O)O)[C@@H](C)CC)C2=O)cc(OC)c1OC (some centres undefined)
0.0261 | C=CCN1CCC[C@H]1CNC(=O)c1cc(CCCSC2CC(=O)N(CCCCCC(=O)NCCOCCOCCOCCOCCC(=O)N[C@H](C(=O)N[C@@H](Cc3ccccc3)C(=O)N[C@@H](Cc3ccccc3)C(=O)N[C@@H](Cc3ccc(O)cc3)C(=O)NCC(=O)NCC(=O)N[C@@H](CO)C(=O)N[C@@H](CCCNC(=N)N)C(=O)NCC(=O)N[C@@H](CCCCNC(=O)CN3CCN(CC(=O)O)CCN(CC(=O)O)CCN(CC(=O)O)CC3)C(=O)N[C@@H](CCCNC(=N)N)C(=O)N[C@@H](CC(N)=O)C(=O)N[C@@H](CC(N)=O)C(=O)N[C@@H](Cc3ccccc3)C(=O)N[C@@H](CCCCN)C(=O)N[C@H](C(=O)N[C@@H](CCC(=O)O)C(=O)N[C@@H](CCC(=O)O)C(=O)N[C@@H](Cc3ccc(O)cc3)C(=O)O)[C@@H](C)O)[C@@H](C)O)C2=O)cc(OC)c1OC (some centres undefined)
0.0358 | C=CCN1CCC[C@H]1CNC(=O)c1cc(CCCSC2CC(=O)N(CCCCCC(=O)NCCOCCOCCOCCOCCOCCOCCC(=O)N[C@H](C(=O)N[C@@H](Cc3ccccc3)C(=O)N[C@@H](Cc3ccccc3)C(=O)N[C@@H](Cc3ccc(O)cc3)C(=O)NCC(=O)NCC(=O)N[C@@H](CO)C(=O)N[C@@H](CCCNC(=N)N)C(=O)NCC(=O)N[C@@H](CCCCNC(=O)CN3CCN(CC(=O)O)CCN(CC(=O)O)CCN(CC(=O)O)CC3)C(=O)N[C@@H](CCCNC(=N)N)C(=O)N[C@@H](CC(N)=O)C(=O)N[C@@H](CC(N)=O)C(=O)N[C@@H](Cc3ccccc3)C(=O)N[C@@H](CCCCN)C(=O)N[C@H](C(=O)N[C@@H](CCC(=O)O)C(=O)N[C@@H](CCC(=O)O)C(=O)N[C@@H](Cc3ccc(O)cc3)C(=O)O)[C@@H](C)O)[C@@H](C)O)C2=O)cc(OC)c1OC (some centres undefined)
0.0428 | C=CCN1CCC[C@H]1CNC(=O)c1cc(CCCSC2CC(=O)N(CCCCCC(=O)NCCOCCOCCOCCOCCOCCOCCOCCOCCC(=O)N[C@H](C(=O)N[C@@H](Cc3ccccc3)C(=O)N[C@@H](Cc3ccccc3)C(=O)N[C@@H](Cc3ccc(O)cc3)C(=O)NCC(=O)NCC(=O)N[C@@H](CO)C(=O)N[C@@H](CCCNC(=N)N)C(=O)NCC(=O)N[C@@H](CCCCNC(=O)CN3CCN(CC(=O)O)CCN(CC(=O)O)CCN(CC(=O)O)CC3)C(=O)N[C@@H](CCCNC(=N)N)C(=O)N[C@@H](CC(N)=O)C(=O)N[C@@H](CC(N)=O)C(=O)N[C@@H](Cc3ccccc3)C(=O)N[C@@H](CCCCN)C(=O)N[C@H](C(=O)N[C@@H](CCC(=O)O)C(=O)N[C@@H](CCC(=O)O)C(=O)N[C@@H](Cc3ccc(O)cc3)C(=O)O)[C@@H](C)O)[C@@H](C)O)C2=O)cc(OC)c1OC (some centres undefined)
0.0642 | C=CCN1CCC[C@H]1CNC(=O)c1cc(CCCSC2CC(=O)N(CCCCCC(=O)N[C@H](C(=O)N[C@@H](Cc3ccccc3)C(=O)N[C@@H](Cc3ccccc3)C(=O)N[C@@H](Cc3ccc(O)cc3)C(=O)NCC(=O)NCC(=O)N[C@@H](CO)C(=O)N[C@@H](CCCNC(=N)N)C(=O)NCC(=O)N[C@@H](CCCCNC(=O)CN3CCN(CC(=O)O)CCN(CC(=O)O)CCN(CC(=O)O)CC3)C(=O)N[C@@H](CCCNC(=N)N)C(=O)N[C@@H](CC(N)=O)C(=O)N[C@@H](CC(N)=O)C(=O)N[C@@H](Cc3ccccc3)C(=O)N[C@@H](CCCC[n+]3c(C)cc(/C=C/C=C/c4ccc(N(C)C)cc4)cc3C)C(=O)N[C@H](C(=O)N[C@@H](CCC(=O)O)C(=O)N[C@@H](CCC(=O)O)C(=O)N[C@@H](Cc3ccc(O)cc3)C(=O)O)[C@@H](C)O)[C@@H](C)O)C2=O)cc(OC)c1OC (some centres undefined)
0.00731 | C=CCN1CCC[C@H]1CNC(=O)c1cc(CCCSC2CC(=O)N(CCCCCC(=O)NCCOCCOCCOCCOCCC(N)=O)C2=O)cc(OC)c1OC (some centres undefined)
0.00063 | C=CCN1CCC[C@H]1CNC(=O)c1cc(CCCF)ccc1OC
0.0123 | C=CCN1CCC[C@H]1CNC(=O)c1cc(CCCSC2CC(=O)N(CCCCCC(=O)NCC(=O)N[C@@H](Cc3c[nH]c4ccccc34)C(=O)N[C@H](C(=O)N[C@@H](CC(C)C)C(=O)N[C@@H](CC(=O)O)C(=O)N[C@@H](CO)C(=O)N[C@@H](C)C(=O)NCC(=O)N[C@@H](Cc3ccc(O)cc3)C(=O)N[C@@H](CC(C)C)C(=O)N[C@@H](CC(C)C)C(=O)NCC(=O)N[C@@H](CCCCN)C(=O)N[C@H](C(=O)N[C@@H](CC(=O)O)C(=O)N[C@@H](CC(C)C)C(=O)N[C@@H](CCCCN)C(=O)N[C@@H](C)C(=O)N[C@@H](CC(C)C)C(=O)N[C@@H](C)C(=O)N[C@@H](C)C(=O)N[C@@H](CC(C)C)C(=O)N[C@@H](C)C(=O)N[C@@H](CCCCN)C(=O)N[C@@H](CCCCN)C(=O)N[C@H](C(=O)N[C@@H](CC(C)C)C(=O)O)[C@@H](C)CC)[C@@H](C)CC)[C@@H](C)O)C2=O)cc(OC)c1OC (some centres undefined) (X1-GWTLDSAGYLLGKIDLKALAALAKKIL-OH)
0.0273 | C=CCN1CCC[C@H]1CNC(=O)c1cc(CCCSC2CC(=O)N(CCCCCC(=O)N[C@H](C(=O)N[C@@H](Cc3cnc[nH]3)C(=O)N[C@@H](CCCNC(=N)N)C(=O)N3CCC[C@H]3C(=O)N3CCC[C@H]3C(=O)N[C@@H](CCSC)C(=O)N[C@@H](Cc3c[nH]c4ccccc34)C(=O)N[C@@H](CO)C(=O)N3CCC[C@H]3C(=O)N[C@H](C(=O)N[C@@H](Cc3c[nH]c4ccccc34)C(=O)N3CCC[C@H]3C(=O)O)C(C)C)[C@@H](C)O)C2=O)cc(OC)c1OC (some centres undefined) (X1-THRPPMWSPVWP-OH)
0.013 | C=CCN1CCC[C@H]1CNC(=O)c1cc(CCCSC2CC(=O)N(CCCCCC(=O)N[C@H](C(=O)N[C@@H](CCC(N)=O)C(=O)N[C@@H](CCCNC(=N)N)C(=O)N[C@@H](CCCCN)C(=O)N[C@@H](CCCNC(=N)N)C(=O)N[C@@H](CCC(N)=O)C(=O)N[C@@H](CCCCN)C(=O)N[C@@H](CC(C)C)C(=O)N[C@@H](CCSC)C(=O)N3CCC[C@H]3C(=O)O)C(C)C)C2=O)cc(OC)c1OC (some centres undefined) (X1-VQRKRQKLMP-OH)
> 1 | H-VQRKRQKLMP-OH
